These are literature values, as cited in patent publication US9913866B2, “Selective cell targeting using adenovirus and chemical dimers” (priority 2012, dated 2018).

Molecules are shown by their SMILES.

Data set [1] addresses FKBP and wt FRB domain (Homo sapiens, UniProt P62942).
In data set [2] the target is FKBP and a mutant FRB domain (mTOR mutation T2098L) (Homo sapiens, UniProt P42345+P62942, T2098L).
Sequence of FKBP and a mutant FRB domain (mTOR mutation T2098L) (P42345 2012-2144 T2098L limits assumed): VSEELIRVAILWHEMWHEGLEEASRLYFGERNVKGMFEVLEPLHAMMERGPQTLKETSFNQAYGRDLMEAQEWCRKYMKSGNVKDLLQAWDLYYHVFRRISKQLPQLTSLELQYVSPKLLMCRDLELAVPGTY
Sequence of FKBP and a mutant FRB domain (mTOR mutation T2098L) (P62942 2-108 limits assumed): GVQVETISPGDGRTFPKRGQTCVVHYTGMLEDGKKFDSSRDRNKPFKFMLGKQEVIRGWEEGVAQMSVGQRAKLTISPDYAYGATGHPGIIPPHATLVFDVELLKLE

Sequence of FKBP and wt FRB domain (P62942 2-108 limits assumed): as above

For `CO[C@H]1[C@@H](O)[C@H](C)C[C@H](C)/C=C/C=C/C=C(\C)[C@@H](c2c[nH]c3c(C)cccc23)C[C@@H]2CC[C@@H](C)[C@@](O)(O2)C(=O)C(=O)N2CCCC[C@H]2C(=O)O[C@H]([C@H](C)C[C@@H]2CC[C@@H](O)[C@H](OC)C2)C[C@H](O)[C@H](C)/C=C(\C)[C@H]1O` [AP21967], the heterodimer formation entry in data set [1] is recorded as “not with the wt FRB domain”; in data set [2], “able to form stable heterodimers”.
